{"source": "PubChem BioAssay AID1259411", "about": "(Chemical Carcinogenesis Research Information System (CCRIS), 2018)", "system": "rodent carcinogenicity bioassays, tumor incidence", "assay": "CCRIS carcinogenicity studies", "details": "Dose: 0, Dose: 0", "summary_of_the_method": "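NCI-built, expert-reviewed records of carcinogenicity and related test outcomes (mutagenicity, tumor promotion/inhibition) compiled from published and report sources, historical span 1985-2011, not updated.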", "note": "Activity calls are given as the source filed them. The rule behind the calls is not given here."}
{"smiles": "F", "values": [{"measurement": "carcinogen call", "setting": "Species: MOUSE, Strain/Sex: B6C3F1/FEMALE, Route: ORAL, 25, 100, 175 PPM IN DRINKING WATER FOR 103 WK (STUDY DURATION: 103 WK), 25, 100, 175 PPM IN DRINKING WATER FOR 103 WK (STUDY DURATION: 103 WK)", "value": "inactive; negative"}, {"measurement": "carcinogen call", "setting": "Species: MOUSE, Strain/Sex: B6C3F1/MALE, Route: ORAL, 25, 100, 175 PPM IN DRINKING WATER FOR 103 WK (STUDY DURATION: 103 WK), 25, 100, 175 PPM IN DRINKING WATER FOR 103 WK (STUDY DURATION: 103 WK)", "value": "inactive; negative"}, {"measurement": "carcinogen call", "setting": "Species: MOUSE, Strain/Sex: F344/MALE, Route: ORAL, 25, 100, 175 PPM IN DRINKING WATER FOR 103 WK (STUDY DURATION: 103 WK), 25, 100, 175 PPM IN DRINKING WATER FOR 103 WK (STUDY DURATION: 103 WK), Tumor Site: Type of Lesion: BONE: OSTEOSARCOMA", "value": "equivocal"}, {"measurement": "carcinogen call", "setting": "Species: RAT, Strain/Sex: F344/FEMALE, Route: ORAL, 25, 100, 175 PPM IN DRINKING WATER FOR 103 WK (STUDY DURATION: 103 WK), 25, 100, 175 PPM IN DRINKING WATER FOR 103 WK (STUDY DURATION: 103 WK)", "value": "inactive; negative"}, {"measurement": "carcinogen call", "setting": "Species: RAT, Strain/Sex: SPRAGUE-DAWLEY/FEMALE, Route: ORAL, 4, 10, 25 MG/KG/D ADDED TO LOW-FLUORIDE DIET FOR DURATION OF STUDY (STUDY DURATION: 99 WK), 4, 10, 25 MG/KG/D ADDED TO LOW-FLUORIDE DIET FOR DURATION OF STUDY (STUDY DURATION: 99 WK)", "value": "inactive; negative"}, {"measurement": "carcinogen call", "setting": "Species: RAT, Strain/Sex: SPRAGUE-DAWLEY/MALE, Route: ORAL, 4, 10, 25 MG/KG/D ADDED TO LOW-FLUORIDE DIET FOR DURATION OF STUDY (STUDY DURATION: 95 WK), 4, 10, 25 MG/KG/D ADDED TO LOW-FLUORIDE DIET FOR DURATION OF STUDY (STUDY DURATION: 95 WK)", "value": "inactive; negative"}]}
{"smiles": "O=C1C=Cc2cccc3cccc1c23", "values": [{"measurement": "carcinogen call", "setting": "Species: MOUSE, Strain/Sex: ICR/FEMALE, Route: INTRAPERITONEAL, 0.84, 2.1, 4.2 MG (TOTAL DOSES) ADMINISTERED TO NEWBORN MICE AS 1/7 ON DAY 1, 2/7 ON DAY 8 AND 4/7 ON DAY 15 (STUDY D, 0.84, 2.1, 4.2 MG (TOTAL DOSES) ADMINISTERED TO NEWBORN MICE AS 1/7 ON DAY 1, 2/7 ON DAY 8 AND 4/7 ON DAY 15 (STUDY D", "value": "inactive; negative"}, {"measurement": "carcinogen call", "setting": "Species: MOUSE, Strain/Sex: ICR/MALE, Route: INTRAPERITONEAL, 0.84, 2.1, 4.2 MG (TOTAL DOSES) ADMINISTERED TO NEWBORN MICE AS 1/7 ON DAY 1, 2/7 ON DAY 8 AND 4/7 ON DAY 15 (STUDY D, 0.84, 2.1, 4.2 MG (TOTAL DOSES) ADMINISTERED TO NEWBORN MICE AS 1/7 ON DAY 1, 2/7 ON DAY 8 AND 4/7 ON DAY 15 (STUDY D, Tumor Site: Type of Lesion: LUNG: TUMOR", "value": "active; positive"}]}
{"smiles": "CCOC(=O)c1ccccc1C(=O)OCC", "values": [{"measurement": "carcinogen call", "setting": "Species: MOUSE, Strain/Sex: B6C3F1/FEMALE, Route: DERMAL, 7.5, 15, 30 µL/100 µL IN ACETONE 5 D/WK FOR 104-105 WK (STUDY DURATION: 104-105 WK), 7.5, 15, 30 µL/100 µL IN ACETONE 5 D/WK FOR 104-105 WK (STUDY DURATION: 104-105 WK), Tumor Site: Type of Lesion: LIVER: HEPATOCELLULAR ADENOMA, HEPATOCELLULAR ADENOMA OR CARCINOMA", "value": "equivocal"}, {"measurement": "carcinogen call", "setting": "Species: MOUSE, Strain/Sex: B6C3F1/MALE, Route: DERMAL, 7.5, 15, 30 µL/100 µL IN ACETONE 5 D/WK FOR 104-105 WK (STUDY DURATION: 104-105 WK), 7.5, 15, 30 µL/100 µL IN ACETONE 5 D/WK FOR 104-105 WK (STUDY DURATION: 104-105 WK), Tumor Site: Type of Lesion: LIVER: HEPATOCELLULAR ADENOMA, HEPATOCELLULAR ADENOMA OR CARCINOMA", "value": "equivocal"}, {"measurement": "carcinogen call", "setting": "Species: RAT, Strain/Sex: F344/FEMALE, Route: DERMAL, 100, 300 µL IN ACETONE 5 D/WK FOR 104 WK (STUDY DURATION: 104 WK), 100, 300 µL IN ACETONE 5 D/WK FOR 104 WK (STUDY DURATION: 104 WK)", "value": "inactive; negative"}, {"measurement": "carcinogen call", "setting": "Species: RAT, Strain/Sex: F344/MALE, Route: DERMAL, 100, 300 µL IN ACETONE 5 D/WK FOR 104 WK (STUDY DURATION: 104 WK), 100, 300 µL IN ACETONE 5 D/WK FOR 104 WK (STUDY DURATION: 104 WK)", "value": "inactive; negative"}]}
{"smiles": "CC1(C)CN=C(NN=C(/C=C/c2ccc(C(F)(F)F)cc2)/C=C/c2ccc(C(F)(F)F)cc2)NC1", "values": [{"measurement": "carcinogen call", "setting": "Species: Mouse, Strain/Sex: CD-1/Female (?/Group), Route: Oral, 25, 50, 100, 200 ppm of 92% hydramethylnon in diet for 18 mo, study duration 18 mo, 25, 50, 100, 200 ppm of 92% hydramethylnon in diet for 18 mo, study duration 18 mo", "value": "inactive; negative"}, {"measurement": "carcinogen call", "setting": "Species: Mouse, Strain/Sex: CD-1/Male (?/Group), Route: Oral, 25, 50, 100, 200 ppm of 92% hydramethylnon in diet for 18 mo, study duration 18 mo, 25, 50, 100, 200 ppm of 92% hydramethylnon in diet for 18 mo, study duration 18 mo", "value": "inactive; negative"}, {"measurement": "carcinogen call", "setting": "Species: Rat, Strain/Sex: CD/Female (50/Group), Route: Oral, 25, 50, 100, 200 ppm in diet for 2 yr, study duration 2 yr, 25, 50, 100, 200 ppm in diet for 2 yr, study duration 2 yr", "value": "inactive; negative"}, {"measurement": "carcinogen call", "setting": "Species: Rat, Strain/Sex: CD/Male (50/Group), Route: Oral, 25, 50, 100, 200 ppm in diet for 2 yr, study duration 2 yr, 25, 50, 100, 200 ppm in diet for 2 yr, study duration 2 yr", "value": "inactive; negative"}]}
{"smiles": "C#CCO", "values": [{"measurement": "carcinogen call", "setting": "Species: Mouse, Strain/Sex: B6C3F1/Female (50/Group), Route: Inhalation, 8, 16, 32 ppm for 6 hr plus 14 min per d, 5 d per wk for 105 wk (Study duration: 105 wk), 8, 16, 32 ppm for 6 hr plus 14 min per d, 5 d per wk for 105 wk (Study duration: 105 wk), Tumor Site: Type of Lesion: Respiratory epithelium: Adenoma (0/50; 2/50; 4/50; 6/50)", "value": "active; positive. conclusions of authors: some evidence of carcinogenic activity."}, {"measurement": "carcinogen call", "setting": "Species: Mouse, Strain/Sex: B6C3F1/Male (50/Group), Route: Inhalation, 8, 16, 32 ppm for 6 hr plus 14 min per d, 5 d per wk for 105 wk (Study duration: 105 wk), 8, 16, 32 ppm for 6 hr plus 14 min per d, 5 d per wk for 105 wk (Study duration: 105 wk), Tumor Site: Type of Lesion: Respiratory epithelium: Adenoma (0/49; 1/50; 4/50; 7/50), Harderian gland (3/50; 10/50; 6/50; 11/50), Tumor Site: Type of Lesion: Respiratory epithelium: Adenoma (0/49; 1/50; 4/50; 7/50), Harderian gland (3/50; 10/50; 6/50; 11/50)", "value": "active; positive. conclusions of authors: some evidence of carcinogenic activity based o"}, {"measurement": "carcinogen call", "setting": "Species: Rat, Strain/Sex: F344/N / Female (50/Group), Route: Inhalation, 16, 32, 64 ppm for 6 hr plus 14 min per d, 5 d per wk for 105 wk (Study duration: 105 wk), 16, 32, 64 ppm for 6 hr plus 14 min per d, 5 d per wk for 105 wk (Study duration: 105 wk), Tumor Site: Type of Lesion: None", "value": "inactive; negative. conclusions of authors: no evidence of carcinogenic activity."}, {"measurement": "carcinogen call", "setting": "Species: Rat, Strain/Sex: F344/N / Male (50/Group), Route: Inhalation, 16, 32, 64 ppm for 6 hr plus 14 min per d, 5 d per wk for 105 wk (Study duration: 105 wk), 16, 32, 64 ppm for 6 hr plus 14 min per d, 5 d per wk for 105 wk (Study duration: 105 wk), Tumor Site: Type of Lesion: Respiratory epithelium: Adenoma (0/49; 0/49; 0/50; 3/49)", "value": "inactive; negative (although incidence at highest dose exceeded historical controls). con"}]}
